Assay results reported in patent US20250326752A1, “PIPERIDINYL-METHYL-PURINE AMINE SALTS, CRYSTALLINE FORMS, AND THEIR USE IN TREATING MEDICAL DISEASES AND CONDITIONS” (K36 Therapeutics, Inc., priority 2022, published 2025).
Counter-ions that a name gives are not always drawn.

Legend:
[1] = hygroscopicity by dynamic vapor sorption; format: physicochemical; details: transitioned from 0% to 90% relative humidity
[2] = water solubility of the crystalline form in phosphate buffer; format: physicochemical; details: for solubility: pH 6.8 (phosphate buffer; 50 mM where stated)
[3] = aqueous buffer, read-out: water solubility of (S)-1-((R)-3-amino-1-(4-((6-amino-9H-purin-9-yl)methyl)-6-(2,5-difluoro-4-methoxyphenyl)pyridin-3-yl)piperidin-3-yl)-2,2-difluoroethan-1-ol
[4] = pH 7.0 (phosphate buffer), 37° C., after 30 minutes

| SMILES | increase in weight (hygroscopicity by dynamic vapor sorption) [1] | water solubility of (S)-1-((R)-3-amino-1-(4-((6-amino-9H-purin-9-yl)methyl)-6-(2,5-difluoro-4-methoxyphenyl)pyridin-3-yl)piperidin-3-yl)-2,2-difluoroethan-1-ol [2, 4] | further results |
| --- | --- | --- | --- |
| COc1cc(F)c(-c2cc(Cn3cnc4c(N)ncnc43)c(N3CCC[C@](N)([C@H](O)C(F)F)C3)cn2)cc1F.Cl [Example 1, (S)-1-((R)-3-amino-1-(4-((6-amino-9H-purin-9-yl)methyl)-6-(2,5-difluoro-4-methoxyphenyl)pyridin-3-yl)piperidin-3-yl)-2,2-difluoroethan-1-ol Hydrochloric Acid Salt] | 16% |  | solubility [2, 3]: 220 µg/mL |
| COc1cc(F)c(-c2cc(Cn3cnc4c(N)ncnc43)c(N3CCC[C@](N)([C@H](O)C(F)F)C3)cn2)cc1F [Example 2, (S)-1-((R)-3-amino-1-(4-((6-amino-9H-purin-9-yl)methyl)-6-(2,5-difluoro-4-methoxyphenyl)pyridin-3-yl)piperidin-3-yl)-2,2-difluoroethan-1-ol Hydrochloric Acid Salt] | 1.8% |  | solubility [2, 3]: 210 µg/mL |
| COc1cc(F)c(-c2cc(Cn3cnc4c(N)ncnc43)c(N3CCC[C@](N)([C@H](O)C(F)F)C3)cn2)cc1F.Cl [Example 3, (S)-1-((R)-3-amino-1-(4-((6-amino-9H-purin-9-yl)methyl)-6-(2,5-difluoro-4-methoxyphenyl)pyridin-3-yl)piperidin-3-yl)-2,2-difluoroethan-1-ol Hydrochloric Acid Salt] |  |  | solubility at 30 min ([2]; aqueous buffer, pH 7.0 (phosphate buffer), 37° C., after 30 minutes, read-out: water solubility of (S)-1-((R)-3-amino-1-(4-((6-amino-9H-purin-9-yl)methyl)-6-(2,5-difluoro-4-methoxyphenyl)pyridin-3-yl)piperidin-3-yl)-2,2-difluoroethan-1-ol): 1170 µg/mL |
| COc1cc(F)c(-c2cc(Cn3cnc4c(N)ncnc43)c(N3CCC[C@](N)([C@H](O)C(F)F)C3)cn2)cc1F [Example 4, (S)-1-((R)-3-amino-1-(4-((6-amino-9H-purin-9-yl)methyl)-6-(2,5-difluoro-4-methoxyphenyl)pyridin-3-yl)piperidin-3-yl)-2,2-difluoroethan-1-ol Hydrochloric Acid Salt] |  | 360 µg/mL |  |
| COc1cc(F)c(-c2cc(Cn3cnc4c(N)ncnc43)c(N3CCC[C@](N)([C@H](O)C(F)F)C3)cn2)cc1F [Example 5, (S)-1-((R)-3-amino-1-(4-((6-amino-9H-purin-9-yl)methyl)-6-(2,5-difluoro-4-methoxyphenyl)pyridin-3-yl)piperidin-3-yl)-2,2-difluoroethan-1-ol Sulfuric Acid Salt] | 6.0% |  |  |
| COc1cc(F)c(-c2cc(Cn3cnc4c(N)ncnc43)c(N3CCC[C@](N)([C@H](O)C(F)F)C3)cn2)cc1F [Example 6, (S)-1-((R)-3-amino-1-(4-((6-amino-9H-purin-9-yl)methyl)-6-(2,5-difluoro-4-methoxyphenyl)pyridin-3-yl)piperidin-3-yl)-2,2-difluoroethan-1-ol Sulfuric Acid Salt] |  | 780 µg/mL |  |
| COc1cc(F)c(-c2cc(Cn3cnc4c(N)ncnc43)c(N3CCC[C@](N)([C@H](O)C(F)F)C3)cn2)cc1F [Example 8, (S)-1-((R)-3-amino-1-(4-((6-amino-9H-purin-9-yl)methyl)-6-(2,5-difluoro-4-methoxyphenyl)pyridin-3-yl)piperidin-3-yl)-2,2-difluoroethan-1-ol Succinic Acid Salt] |  | 1670 µg/mL |  |
| COc1cc(F)c(-c2cc(Cn3cnc4c(N)ncnc43)c(N3CCC[C@](N)([C@H](O)C(F)F)C3)cn2)cc1F [Example 10, Crystalline L-Malic Acid Salt of (S)-1-((R)-3-amino-1-(4-((6-amino-9H-purin-9-yl)methyl)-6-(2,5-difluoro-4-methoxyphenyl)pyridin-3-yl)piperidin-3-yl)-2,2-difluoroethan-1-ol] |  | 1530 µg/mL |  |
| COc1cc(F)c(-c2cc(Cn3cnc4c(N)ncnc43)c(N3CCC[C@](N)([C@H](O)C(F)F)C3)cn2)cc1F [Example 11, Crystalline L-Tartaric Acid Salt of (S)-1-((R)-3-amino-1-(4-((6-amino-9H-purin-9-yl)methyl)-6-(2,5-difluoro-4-methoxyphenyl)pyridin-3-yl)piperidin-3-yl)-2,2-difluoroethan-1-ol] |  | 540 µg/mL |  |
